Measurements as given in patent US20230099344A1, “COMPOUNDS AND METHODS FOR THE TARGETED DEGRADATION OF IRAK-4” (Arvinas Operations, Inc., priority 2021, published 2023).

Assays:
Type in all cases: cell-based
[1] = test system: IL6; assay: IL-1β stimulated IL6 inhibition assay in PBMC; conditions: human PBMCs, IL-1β stimulation, compound overnight, IL6 by MSD after 24 hrs; for IC50: read-out: IL1β stim IL6 inhibition IC50; for Emax: read-out: IL1β stim IL6 inhibition Ymax
Experimental: (§1) IL-1β, LPS, or R848 Stimulated IL6 Inhibition and IL-1β Stimulated IL8 Inhibition Assay
(§2) Human PBMC cells were seeded at 2.0×10^6 cells/mL, treated with compound overnight, and dosed with the EC50 concentration of each stimulant (either IL-1B. LPS, or R848) was determined for each donor. After 24 hrs, media was collected and analyzed by MSD for IL6 and/or IL8 levels.

[2] = test system: IL8; assay: IL-1β stimulated IL8 inhibition assay in PBMC; conditions: human PBMCs, IL-1β stimulation, compound overnight, IL8 by MSD after 24 hrs; for IC50: read-out: IL1β stim IL8 inhibition IC50; for Emax: read-out: IL1β stim IL8 inhibition Ymax
Experimental: as §1, §2

[3] = biological target: T1, IRAK-4 (Homo sapiens, UniProt Q9NWZ3); assay: IRAK-4 ELISA, OCI-Ly10 degradation; design: endogenous in cells; conditions: treated overnight; for Dmax: OCI-Ly10, OCI-Ly10 cells; for DC50: OCI-Ly10 cells
T1 sequence (Q9NWZ3 1-460): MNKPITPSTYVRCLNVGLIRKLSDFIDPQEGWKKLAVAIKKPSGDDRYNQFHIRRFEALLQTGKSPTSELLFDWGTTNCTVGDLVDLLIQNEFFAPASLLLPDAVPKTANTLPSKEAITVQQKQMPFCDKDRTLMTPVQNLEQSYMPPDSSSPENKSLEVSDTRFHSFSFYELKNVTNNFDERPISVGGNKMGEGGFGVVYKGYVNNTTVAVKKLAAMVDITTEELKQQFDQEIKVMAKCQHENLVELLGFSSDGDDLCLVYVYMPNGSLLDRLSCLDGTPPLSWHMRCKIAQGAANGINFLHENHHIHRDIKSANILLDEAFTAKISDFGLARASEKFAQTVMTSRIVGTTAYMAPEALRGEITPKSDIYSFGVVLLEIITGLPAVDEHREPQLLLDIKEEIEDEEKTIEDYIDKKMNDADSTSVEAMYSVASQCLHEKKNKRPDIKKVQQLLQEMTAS
Outline: (§3)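 ELISA quantification of cellular IRAK-4 after compound treatment overnight; PBMC were plated at 2×10^6/ml, OCI-Ly10 at 1×10^6/ml.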

[4] = biological target: T1, IRAK-4; assay: IRAK-4 ELISA, PBMC degradation; design: endogenous in cells; host or cells: PBMC; conditions: treated overnight
Outline: as §3

[5] = test system: IL6; assay: R848 stimulated IL6 inhibition assay in PBMC; conditions: PBMC, human PBMCs, R848 stimulation, compound overnight, IL6 by MSD after 24 hrs
Outline: (§4)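 Human PBMC at 2.0×10^6 cells/mL were pre-treated with compound overnight, then stimulated with IL-1β, LPS or R848, each at the donor-specific EC50 concentration. After 24 hrs, supernatant IL6 and/or IL8 was measured by MSD.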

[6] = test system: IL6; assay: LPS stimulated IL6 inhibition assay in PBMC; conditions: Homo sapiens, PBMC, 24 h, human PBMCs, LPS stimulation, compound overnight, IL6 by MSD after 24 hrs
Outline: as §4

SMILES	IC50 ([1]; Homo sapiens, PBMC, 24 h)	IC50 [2]	Dmax [3]	DC50 [3]	DC50 [4]	Dmax [4]	PBMC DC90 [4]	IC50 [1]	IC50 ([5]; read-out: R848 stim IL6 inhibition IC50)	IC50 ([6]; read-out: LPS stim IL6 inhibition IC50)	Emax ([1]; PBMC)	Emax [2]	Dmax ([5]; Homo sapiens, 24 h, read-out: R848 stim IL6 inhibition Dmax)	Dmax ([6]; read-out: LPS Stim IL6 inhibition Dmax)
CC(C)Oc1cc2c(cc1NC(=O)c1cnn3cccnc13)CN(C1CCN(CC3CN(c4ccc5c(c4)CN(C4CCC(=O)NC4=O)C5=O)C3)CC1)C2=O (stereo not drawn) [Example 4]	< 10 nM	10 to 50 nM	≥ 90%	< 10 nM	< 1 nM	≥ 90%	4 nM	–	–	–	≥ 90%	80 to 90%	–	–
Cc1cnc2c(C(=O)Nc3cc4c(cc3OC(C)C)C(=O)N(C3CCN(CCc5ccc6c(c5)CN(C5CCC(=O)NC5=O)C6=O)CC3)C4)cnn2c1 (stereo not drawn) [Example 9]	< 10 nM	10 to 50 nM	≥ 90%	< 10 nM	1 to 5 nM	80 to 90%	A (A represents a DC90 value <10.0 nM)	–	–	–	≥ 90%	70 to 80%	–	–
CC(C)Oc1cc2c(cc1NC(=O)c1cnn3cccnc13)CN(C1CCN(CC3CCN(c4cc5c(cc4F)C(=O)N(C4CCC(=O)NC4=O)C5=O)CC3)CC1)C2=O (stereo not drawn) [Example 13]	10 to 50 nM	≥ 100 nM	–	–	< 1 nM	≥ 90%	C (C represents a DC90 value ≥25.0 nM and <50 nM)	–	–	–	≥ 90%	≥ 90%	–	–
O=C1CCC(N2Cc3cc(N4CCC(CN5CCC(N6Cc7cc(NC(=O)c8cnn9cccnc89)c(OCC8CC8)cc7C6=O)CC5)CC4)ccc3C2=O)C(=O)N1 (stereo not drawn) [Example 22]	< 10 nM	10 to 50 nM	–	–	< 1 nM	80 to 90%	A (A represents a DC90 value <10.0 nM)	–	–	–	≥ 90%	70 to 80%	–	–
O=C1CCC(N2C(=O)c3ccc(N4CCC(CN5CCC(N6Cc7cc(NC(=O)c8cnn9cccnc89)c(N8CCOCC8)cc7C6=O)CC5)CC4)cc3C2=O)C(=O)N1 (stereo not drawn) [Example 31]	–	–	80 to 90%	< 10 nM	1 to 5 nM	≥ 90%	B (B represents a DC90 value ≥10.0 nM and <25.0 nM)	≥ 100 nM	–	–	≥ 90%	–	–	–
CC(C)Oc1cc2c(cc1NC(=O)c1cnn3cccnc13)CN([C@H]1CC[C@H](N3CCN(c4ccc5c(c4)C(=O)N(C4CCC(=O)NC4=O)C5=O)CC3)CC1)C2=O (stereo partly drawn) [Example 66]	10 to 50 nM	50 to 100 nM	–	–	1 to 5 nM	≥ 90%	A (A represents a DC90 value <10.0 nM)	–	–	–	≥ 90%	70 to 80%	–	–
CC(C)Oc1cc2c(cc1NC(=O)c1cnn3cccnc13)CN([C@H]1CC[C@@H](N3CCN(c4ccc5c(c4)C(=O)N(C4CCC(=O)NC4=O)C5=O)CC3)CC1)C2=O (stereo partly drawn) [Example 67]	10 to 50 nM	≥ 100 nM	–	–	1 to 5 nM	≥ 90%	C (C represents a DC90 value ≥25.0 nM and <50 nM)	–	–	–	≥ 90%	≥ 90%	–	–
O=C1CCC(N2Cc3cc(N4CC(N5CCC(n6cc7cc(NC(=O)c8cnn9cccnc89)c(OCC8CC8)cc7n6)CC5)C4)ccc3C2=O)C(=O)N1 (stereo not drawn) [Example 283]	< 10 nM	10 to 50 nM	–	–	< 1 nM	≥ 90%	A (A represents a DC90 value <10.0 nM)	–	–	–	≥ 90%	< 70%	–	–
CC(C)Oc1cc2c(cc1NC(=O)c1cnn3cccnc13)CN(C1CCC(N(C)C3CN(c4ccc5c(c4)CN(C4CCC(=O)NC4=O)C5=O)C3)CC1)C2=O (stereo not drawn) [Example 314]	< 10 nM	10 to 50 nM	–	–	< 1 nM	80 to 90%	A (A represents a DC90 value <10.0 nM)	–	–	–	≥ 90%	70 to 80%	–	–
CN(C1CN(c2ccc3c(c2)C(=O)N(C2CCC(=O)NC2=O)C3=O)C1)[C@H]1CC[C@H](n2cc3cc(NC(=O)c4cnn5cccnc45)c(OCC4CC4)cc3n2)CC1 (stereo partly drawn) [Example 336]	< 10 nM	10 to 50 nM	–	–	< 1 nM	≥ 90%	A (A represents a DC90 value <10.0 nM)	–	–	–	≥ 90%	70 to 80%	–	–
CC(C)Oc1nc2c(cc1NC(=O)c1cnn3cccnc13)CN(C1CCN(CC3CN(c4ccc5c(c4)C(=O)N(C4CCC(=O)NC4=O)C5=O)C3)CC1)C2=O (stereo not drawn) [Example 398]	< 10 nM	≥ 100 nM	–	–	< 1 nM	≥ 90%	A (A represents a DC90 value <10.0 nM)	–	–	–	≥ 90%	–	–	–
CC(C)Oc1nc2c(cc1NC(=O)c1cnn3cccnc13)CN(C1CCN(CCc3ccc4c(c3)C(=O)N(C3CCC(=O)NC3=O)C4=O)CC1)C2=O (stereo not drawn) [Example 400]	≥ 100 nM	≥ 100 nM	–	–	5 to 10 nM	80 to 90%	D (D represents a DC90 value ≥50 nM)	–	–	–	≥ 90%	–	–	–

The next lines start with results.

IC50 ([1]; Homo sapiens, PBMC, 24 h)	IC50 [2]	Dmax [3]	DC50 [3]	DC50 [4]	Dmax [4]	PBMC DC90 [4]	IC50 [1]	IC50 ([5]; read-out: R848 stim IL6 inhibition IC50)	IC50 ([6]; read-out: LPS stim IL6 inhibition IC50)	SMILES	Emax ([1]; PBMC)	Emax [2]	Dmax ([5]; Homo sapiens, 24 h, read-out: R848 stim IL6 inhibition Dmax)	Dmax ([6]; read-out: LPS Stim IL6 inhibition Dmax)
10 to 50 nM	50 to 100 nM	≥ 90%	< 10 nM	1 to 5 nM	80 to 90%	5 nM	–	–	–	CC(C)Oc1cc2c(cc1NC(=O)c1cnn3cccnc13)CN(C1CCN(CC3CN(c4ccc5c(c4)C(=O)N(C4CCC(=O)NC4=O)C5=O)C3)CC1)C2=O (stereo not drawn) [Example 5]	80 to 90%	80 to 90%	–	–
< 10 nM	10 to 50 nM	–	–	< 1 nM	≥ 90%	6 nM	–	–	–	CC(C)Oc1cc2c(cc1NC(=O)c1cnn3cccnc13)CN(C1CCN(CC3CCN(c4ccc5c(c4)CN(C4CCC(=O)NC4=O)C5=O)CC3)CC1)C2=O (stereo not drawn) [Example 6]	≥ 90%	80 to 90%	–	–
–	–	≥ 90%	< 10 nM	< 1 nM	≥ 90%	A (A represents a DC90 value <10.0 nM)	–	10 to 50 nM	10 to 50 nM	CC(C)Oc1cc2c(cc1NC(=O)c1cnn3cccnc13)CN(C1CCN(C(C)(C)C3CCN(c4ccc5c(c4)C(=O)N(C4CCC(=O)NC4=O)C5=O)CC3)CC1)C2=O (stereo not drawn) [Example 82]	–	–	≥ 90%	70 to 80%
